3 compounds from patent publication US11767330B2, “Citrate salt, pharmaceutical compositions, and methods of making and using the same” (Foghorn Therapeutics Inc., priority 2021, dated 2023) can be followed below.

What all share (format): physicochemical
Data set [1] in a line: Forced degradation study of compound S-D1 (chiral HPLC). The protocol:
Sample solution stock was prepared by weighing 501.53 mg of compound S-D1 to a 100 mL volumetric flask, dissolving by ultrasonic in 50 mL of diluent 2, diluting to volume with diluent 2, and mixing well.
Unstressed sample solution was prepared by weighing 50.83 mg of compound S-D1 into a 100 mL volumetric flask, dissolving by ultrasonic in 50 mL of diluent 2, diluting to volume with diluent 2, and mixing well.
Sample solution for pH=4.0 solution stability was prepared as follows. 50.79 mg of compound S-D1 were weighed into a 100 mL volumetric flask, dissolved by ultrasonic in 50 mL of pH=4.0 50 mM sodium citrate buffer (see above), diluted to volume with pH=4.0 50 mM sodium citrate buffer, and mixed well.
Sample solution for pH=5.0 solution stability was prepared as follows. 50.66 mg of the compound of Formula I were weighed into a 100 mL volumetric flask, dissolved by ultrasonic in 50 mL of pH=5.0 50 mM sodium citrate buffer (see above), diluted to volume with 50 mL of pH=5.0 50 mM sodium citrate buffer and mixed well.
Sample solution for pH=7.0 solution stability was prepared as follows. 50.78 mg of compound S-D1 and 680.42 mg KH2PO4 were weighed into a 100 mL volumetric flask, dissolved by ultrasonic in 50 mL of diluent 1, transferred 29.1 mL of the 0.1N NaOH (see above), diluted to volume with diluent 1, and mixed well.
Acid degradation (1N HCl at RT). 3 mL of the sample stock solution (see above) into an 8 mL vial, added 3 mL of 2N HCl solution, and mixed well. Samples were prepared in quadruplicate and kept at room temperature (RT). At the sampling time point, 1 mL of the sample was transferred into a 5 mL volumetric flask, neutralized with 0.5 mL of […], diluted to volume with diluent 2, and mixed well.
Basic degradation (0.15N NaOH at RT). 3 mL of the sample stock solution (see above) into an 8 mL vial, added 3 mL of 0.3N NaOH solution, and mixed well. Samples were prepared in quadruplicate and kept at room temperature (RT). At the sampling time point, 1 mL of the sample was transferred into a 5 mL volumetric flask, neutralized with 0.5 mL of […], diluted to volume with diluent 2, and mixed well.
Thermal stress degradation (50° C. for solid). Approximately 150 mg of compound S-D1 were weighed into an 8 mL vial. Multiple samples were prepared and placed in an oven at 50° C. At the sampling time points, each of the 50.57 mg, 50.84 mg, and 50.84 mg samples were transferred into their respective 100 mL volumetric flasks, dissolved by ultrasonic in 50 mL of diluent 2, diluted to volume with diluent 2, and mixed well.
Solution Stability. The study was performed according to the conditions outlined in Table 15 using sample solution for pH=4.0 solution stability, sample solution for pH=5.0 solution stability, and sample solution for pH=7.0 solution stability (see above).

A short description of data set [2]: Physical stability by XRPD upon drying at 50° C. under vacuum and exposure to >95% RH. The protocol:
X-Ray Powder Diffraction (XRPD). XRPD was performed using a Rigaku MiniFlex 600 in reflection mode (i.e., Bragg-Brentano geometry). Samples were prepared on Si zero-return wafers.
XRPD analysis was done in three stages. XRPD of the wet cake was done for all samples where solids were observed.
The solids were then exposed to >95% RH overnight. This humid environment was produced by placing a beaker of saturated potassium sulfate in water in a sealed container at RT. The materials exposed to these conditions were evaluated by XRPD, and their patterns were compared to those produced before.
The pattern FF-B was dried at 50° C. under vacuum for 3 h after filtration for further XRPD analysis. The solids were then exposed to >95% RH overnight. This humid environment was produced by placing a beaker of saturated potassium sulfate in water in a sealed container at RT. The materials exposed to these conditions were evaluated by XRPD, and their patterns were compared to those of the crystalline freebase along each step.

Data set [3] is described as follows: Stability at 40° C./75% RH for 1 week. The note with it: 40° C. and 75% RH. The protocol: The humid environment was generated with saturated sodium chloride in water in a sealed container. After one week, the sample appeared pale-yellow upon inspection.
The one-week stability at 75% RH was also tested. In this experiment, 12 mg of the dried crystalline freebase from MeOH were weighted in a 4 mL vial and placed in a 20 mL vial set at 40° C. and 75% RH for 1 week. The humid environment was generated with saturated sodium chloride in water in a sealed container.
The one-week stability at 75% RH was also tested. In this experiment, 12 mg of the crystalline freebase from MeOH was weighted in a 4 mL vial and placed in a 20 mL vial set at 40° C. and 75% RH for 1 week. The humid environment was generated with saturated sodium chloride in water in a sealed container.

Setting [4] is: Acid Hydrolysis, 1N HCl RT, 0 h.
[5] abbreviates: Acid Hydrolysis, 1N HCl RT, 1 d.
Where [6] appears, read: Acid Hydrolysis, 1N HCl RT, 2 d.
[7] abbreviates: Acid Hydrolysis, 1N HCl RT, 3 d.
[8] abbreviates: Base Hydrolysis, 0.15 N NaOH RT, 0 h.
Setting [9] is: Base Hydrolysis, 0.15 N NaOH RT, 1 h.
Setting [10] is: Solution Stability, pH = 4.0, 50 mM Sodium citrate buffer at RT, 0 h.
[11] abbreviates: Solution Stability, pH = 4.0, 50 mM Sodium citrate buffer at RT, 1 d.
The mark [12] stands for this setting: Solution Stability, pH = 4.0, 50 mM Sodium citrate buffer at RT, 2 d.
The mark [13] stands for this setting: Solution Stability, pH = 4.0, 50 mM Sodium citrate buffer at RT, 3 d.
The mark [14] stands for this setting: Solution Stability, pH = 5.0 50 mM Sodium citrate buffer at RT, 0 h.
[15] abbreviates: Solution Stability, pH = 5.0 50 mM Sodium citrate buffer at RT, 1 d.
The mark [16] stands for this setting: Solution Stability, pH = 5.0 50 mM Sodium citrate buffer at RT, 2 d.
[17] abbreviates: Solution Stability, pH = 5.0 50 mM Sodium citrate buffer at RT, 3 d.
The mark [18] stands for this setting: Solution Stability, pH = 7.0 Phosphate buffer at RT, 0 h.
Where [19] appears, read: Solution Stability, pH = 7.0 Phosphate buffer at RT, 1 d.
[20] abbreviates: Solution Stability, pH = 7.0 Phosphate buffer at RT, 2 d.
Setting [21] is: Solution Stability, pH = 7.0 Phosphate buffer at RT, 3 d.

Take `COc1cc(-c2cn(C)c(=O)c3cnc(N4CCC4)cc23)cc(OC)c1CN1CCC(CN2CCC3(CC2)CN(c2ccc4c(c2)C(=O)N([C@H]2CCC(=O)NC2=O)C4)C3)CC1` [S-D1]: the “% Degradation” value in data set [1] (setting [4]) is on record as 0.002%; in data set [1] (setting [5]) it was 0.005%; in data set [1] (setting [6]), 0.011%; in data set [1] (setting [7]) it was 0.016%; in data set [1] (setting [8]) it was 18.260%; in data set [1] (setting [9]), 52.210%. Further, the “% Degradation” value in data set [1] (setting [10]) turned out to be 0.098%; in data set [1] (setting [11]), 0.139%; in data set [1] (setting [12]), 0.301%; in data set [1] (setting [13]) it was 0.482%; in data set [1] (setting [14]), 0.648%; in data set [1] (setting [15]), 1.038%. Moreover, the “% Degradation” value in data set [1] (setting [16]) is reported as 1.407%; in data set [1] (setting [17]), 2.002%; in data set [1] (setting [18]), 10.732%; in data set [1] (setting [19]), 18.922%; in data set [1] (setting [20]), 27.551%; in data set [1] (setting [21]), 35.103%. Further, the “% Degradation” value in data set [1] (Thermal, 50° C. (solid), 1 d) is 0.178%; in data set [1] (Thermal, 50° C. (solid), 3 d), 0.331%; in data set [1] (Thermal, 50° C. (solid), 7 d), 0.380%. In addition, the “Area % (R-D1)” value came to 0.825% in data set [1] (setting [4]); 0.828% in data set [1] (setting [5]); 0.834% in data set [1] (setting [6]); 0.839% in data set [1] (setting [7]); 19.083% in data set [1] (setting [8]); 53.033% in data set [1] (setting [9]). The “Area % (R-D1)” value in data set [1] (setting [10]) was determined as 0.921%; in data set [1] (setting [11]) it was 0.962%; in data set [1] (setting [12]), 1.124%; in data set [1] (setting [13]), 1.305%; in data set [1] (setting [14]), 1.471%; in data set [1] (setting [15]), 1.861%. In addition, the “Area % (R-D1)” value in data set [1] (setting [16]) was 2.230%; in data set [1] (setting [17]) it was 2.825%; in data set [1] (setting [18]) it was 11.555%; in data set [1] (setting [19]), 19.745%; in data set [1] (setting [20]), 28.374%; in data set [1] (setting [21]), 35.926%. Also, the “Area % (R-D1)” value is on record as 1.001% in data set [1] (Thermal, 50° C. (solid), 1 d); 1.154% in data set [1] (Thermal, 50° C. (solid), 3 d); 1.203% in data set [1] (Thermal, 50° C. (solid), 7 d); 0.823% in data set [1] (Unstressed). Further, the “Area % (S-D1)” value in data set [1] (setting [4]) is on record as 99.176%; in data set [1] (setting [5]) it was 99.172%; in data set [1] (setting [6]) it was 99.166%; in data set [1] (setting [7]) it was 99.161%; in data set [1] (setting [8]), 80.917%; in data set [1] (setting [9]), 46.967%. Also, the “Area % (S-D1)” value was 99.079% in data set [1] (setting [10]); 99.038% in data set [1] (setting [11]); 98.876% in data set [1] (setting [12]); 98.695% in data set [1] (setting [13]); 98.529% in data set [1] (setting [14]); 98.139% in data set [1] (setting [15]). For the same compound, the “Area % (S-D1)” value came out at 97.770% in data set [1] (setting [16]); 97.175% in data set [1] (setting [17]); 88.445% in data set [1] (setting [18]); 80.255% in data set [1] (setting [19]); 71.626% in data set [1] (setting [20]); 64.074% in data set [1] (setting [21]). The “Area % (S-D1)” value turned out to be 98.999% in data set [1] (Thermal, 50° C. (solid), 1 d); 98.847% in data set [1] (Thermal, 50° C. (solid), 3 d); 98.797% in data set [1] (Thermal, 50° C. (solid), 7 d); 99.177% in data set [1] (Unstressed).
On to `COc1cc(-c2cn(C)c(=O)c3cnc(N4CCC4)cc23)cc(OC)c1CN1CCC(CN2CCC3(CC2)CN(c2ccc4c(c2)C(=O)N([C@@H]2CCC(=O)NC2=O)C4)C3)CC1.O=C(O)CC(O)(CC(=O)O)C(=O)O` [citrate-A], for which the “physical stability (XRPD) upon drying at 50° C. under vacuum and exposure to >95% RH” value in data set [2] is “became amorphous after drying and exposure to RH”.
For `COc1cc(-c2cn(C)c(=O)c3cnc(N4CCC4)cc23)cc(OC)c1CN1CCC(CN2CCC3(CC2)CN(c2ccc4c(c2)C(=O)N([C@@H]2CCC(=O)NC2=O)C4)C3)CC1` [crystal pattern FF-A], the XRPD after storage entry in data set [3] is listed as “converted to compound R-D1, crystal pattern FF-B”.
